The target in data set [1] is T1, Calcitonin gene-related peptide type 1 receptor (Homo sapiens, UniProt O60894+Q16602). As to the kind of experiment: Displacement of [125I]-CGRP from CGRP receptor in human SK-N-MC cells after 2 hrs by gamma scintillation counter analysis. Format: cell-based.
Data set [2] can be described thus: Plasma concentration in Harlan marmoset at 7 mg/kg, sc after 60 to 105 mins. Format: ADME, organism-based, Callithrix jacchus. Details: dose 7 mg/kg, route subcutaneous. The conditions noted are these: in vivo.
A further data set concerns the target T2, Cytochrome P450 1A2 (Homo sapiens, UniProt P05177).
T2 sequence (P05177 whole entry): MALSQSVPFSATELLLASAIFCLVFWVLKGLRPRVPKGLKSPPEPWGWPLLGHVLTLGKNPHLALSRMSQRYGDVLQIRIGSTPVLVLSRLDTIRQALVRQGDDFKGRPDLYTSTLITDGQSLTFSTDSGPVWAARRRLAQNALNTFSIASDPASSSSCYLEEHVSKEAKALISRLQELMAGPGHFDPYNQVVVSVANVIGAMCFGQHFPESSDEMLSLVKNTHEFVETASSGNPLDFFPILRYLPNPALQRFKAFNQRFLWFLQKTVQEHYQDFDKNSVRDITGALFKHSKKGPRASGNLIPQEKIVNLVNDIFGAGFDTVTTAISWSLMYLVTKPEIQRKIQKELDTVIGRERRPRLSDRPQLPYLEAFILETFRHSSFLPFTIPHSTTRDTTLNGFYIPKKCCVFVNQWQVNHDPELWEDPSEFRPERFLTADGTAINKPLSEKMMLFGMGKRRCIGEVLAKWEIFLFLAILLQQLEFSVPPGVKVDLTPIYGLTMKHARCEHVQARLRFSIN
The experiment in a line: Inhibition of human recombinant CYP1A2 using 3-cyano-7-ethoxycoumarine as substrate after 45 mins by fluorescence assay. Format: ADME.

The target of the next data set is Cytochrome P450 2E1 (Homo sapiens, UniProt P05181). As to the kind of experiment: Inhibition of human recombinant CYP2E1 after 45 mins by fluorescence assay. It counts as ADME.
Data set [3] can be described thus: Half life in human liver microsomes. Format: ADME, Microsome. (In general: Microsomes from liver hold many membrane-bound enzymes, among them those of drug oxidation.)
Data set [4] can be described thus: Oral bioavailability in fasted Sprague-Dawley rat at 10 mg/kg administered as solution. Format: ADME, organism-based. As to conditions: in vivo.
The nature of data set [5]: Oral bioavailability in overnight fasted cynomolgus monkey at 10 mg/kg administered as solution. Format: ADME, organism-based, Macaca fascicularis. The conditions noted are these: in vivo.
The next data set deals with Salmonella typhimurium. The experiment in a line: Genotoxicity in Salmonella typhimurium by Ames test. It counts as toxicity, organism-based. The conditions noted are these: salmonella enterica subsp. enterica serovar typhimurium.
Data set [6] in a line: Permeability of the compound at 100 uM at pH 7.4 after 4 hrs by PAMPA. It counts as ADME. The conditions noted are these: read-out: permeability. In general terms: The PAMPA barrier holds no transporters, so it reflects passive diffusion.
A short description of data set [7]: Permeability of the compound at 100 uM at pH 5.5 after 4 hrs by PAMPA. It counts as ADME. The conditions noted are these: read-out: permeability.
The target of data set [8] is Voltage-gated inwardly rectifying potassium channel KCNH2 (Homo sapiens, UniProt Q12809). As to the kind of experiment: Inhibition of human ERG alpha subunit expressed in HEK293 cells at 10 to 30 uM. Format: cell-based.
A further data set has as its system HEK293. The experiment in a line: Inhibition of L type sodium channel expressed in HEK293 cells at 10 to 30 uM. It counts as cell-based. As to conditions: Homo sapiens.
For the next data set, the species on record is Homo sapiens. As to the kind of experiment: Toxicity in human up to 600 mg. As to conditions: in vivo. It counts as organism-based.
The nature of data set [9]: Fraction unbound in human plasma. It counts as ADME, cell-free.
The test system of data set [10] is Callithrix jacchus. As to the kind of experiment: Antagonist activity at CGRP receptor in Harlan marmoset assessed as inhibition of alphaCGRP-induced facial blood flow at 7 mg/kg, sc administered 45 mins interval for 2 hrs post alphaCGRP challenge measured after 60 to 105 mins by laser droppler flowmetry relative to control. As to conditions: route subcutaneous. Format: functional.

Data set [11] can be described thus: Oral bioavailability in overnight fasted cynomolgus monkey at 10 mg/kg administered as suspension of crystalline free base. It counts as ADME, organism-based, Macaca fascicularis. As to conditions: in vivo.
Another data set addresses T3, Cytochrome P450 2B6 (Homo sapiens, UniProt P20813).
T3 sequence (P20813 whole entry): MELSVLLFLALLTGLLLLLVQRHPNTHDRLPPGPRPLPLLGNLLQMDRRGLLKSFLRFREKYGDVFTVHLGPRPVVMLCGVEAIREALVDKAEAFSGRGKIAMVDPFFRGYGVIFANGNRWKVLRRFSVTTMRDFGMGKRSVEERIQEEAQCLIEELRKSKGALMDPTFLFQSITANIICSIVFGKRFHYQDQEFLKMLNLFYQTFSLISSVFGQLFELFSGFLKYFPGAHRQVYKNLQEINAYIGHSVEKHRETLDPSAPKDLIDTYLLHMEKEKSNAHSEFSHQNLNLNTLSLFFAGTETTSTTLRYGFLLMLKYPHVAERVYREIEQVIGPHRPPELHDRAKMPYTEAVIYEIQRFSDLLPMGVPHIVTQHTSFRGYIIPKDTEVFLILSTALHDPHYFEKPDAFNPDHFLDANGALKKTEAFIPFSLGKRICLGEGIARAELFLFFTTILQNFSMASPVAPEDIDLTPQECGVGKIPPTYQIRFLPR
The experiment in a line: Inhibition of human recombinant CYP2B6 after 45 mins by fluorescence assay. Format: ADME.

The next data set deals with Cytochrome P450 2C9 (Homo sapiens, UniProt P11712). As to the kind of experiment: Inhibition of human recombinant CYP2C9 using 7-methoxy-4-trifluoromethylcoumarin as substrate after 45 mins by fluorescence assay. It counts as ADME.
For the next data set, the target named is Cytochrome P450 2D6 (Homo sapiens, UniProt P10635). As to the kind of experiment: Inhibition of human recombinant CYP2D6 using 3-[2-(N,N-diethyl-Nmethylamino) ethyl]-7-methoxy-4-methylcoumarin as substrate after 45 mins by fluorescence assay. Format: ADME.
The target of the next data set is Cytochrome P450 2C19 (Homo sapiens, UniProt P33261). As to the kind of experiment: Inhibition of human recombinant CYP2C19 using 3-cyano-7-ethoxycoumarine as substrate after 45 mins by fluorescence assay. Format: ADME.
Data set [12] is described as follows: Plasma concentration in Harlan marmoset at 7 mg/kg, sc at 15 mins. Format: ADME, organism-based, Callithrix jacchus. Details: dose 7 mg/kg, route subcutaneous.
Data set [13] has as its target T1, Calcitonin gene-related peptide type 1 receptor. The experiment in a line: Antagonist activity at CGRP receptor in human SK-N-MC cells assessed as inhibition of CGRP-stimulated cAMP production preincubated for 15 mins prior to CGRP challenge measured after 30 mins by HTRF assay. Format: functional, cell-based. In general terms: Changes in cAMP serve as a functional read-out for many G protein-coupled receptors.

The target of data set [14] is Voltage-gated L-type calcium channel (Homo sapiens, UniProt Q13936+Q13698+Q01668+O60840). The experiment in a line: Inhibition of L type calcium channel expressed in HEK293 cells at 10 to 30 uM. It counts as cell-based.
The next data set has as its target T4, Cytochrome P450 2A6 (Homo sapiens, UniProt P11509).
T4 sequence (P11509 whole entry): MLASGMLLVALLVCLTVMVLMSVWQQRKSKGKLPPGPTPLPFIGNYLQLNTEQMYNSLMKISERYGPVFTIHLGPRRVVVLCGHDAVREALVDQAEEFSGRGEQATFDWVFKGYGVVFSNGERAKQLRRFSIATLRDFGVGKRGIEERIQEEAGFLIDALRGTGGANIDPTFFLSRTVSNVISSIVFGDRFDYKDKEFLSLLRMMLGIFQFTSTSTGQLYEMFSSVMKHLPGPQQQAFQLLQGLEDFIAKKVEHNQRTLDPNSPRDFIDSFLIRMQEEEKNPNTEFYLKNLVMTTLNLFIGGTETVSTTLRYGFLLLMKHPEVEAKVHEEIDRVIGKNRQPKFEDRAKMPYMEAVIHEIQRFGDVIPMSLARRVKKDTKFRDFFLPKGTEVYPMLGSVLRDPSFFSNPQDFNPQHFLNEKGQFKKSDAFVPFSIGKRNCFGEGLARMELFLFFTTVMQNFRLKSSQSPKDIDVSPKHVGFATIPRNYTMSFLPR
As to the kind of experiment: Inhibition of human recombinant CYP2A6 after 45 mins by fluorescence assay. Format: ADME.

Data set [15] concerns Callithrix jacchus. As to the kind of experiment: Antagonist activity at CGRP receptor in Harlan marmoset assessed as inhibition of CGRP-induced facial blood flow at 7 mg/kg, sc administered 45 mins interval for 2 hrs post alphaCGRP challenge measured at 15 mins by laser droppler flowmetry relative to control. Format: functional. The conditions noted are these: route subcutaneous.

Data set [16] is described as follows: Aqueous solubility of the compound in crystalline form. Format: physicochemical.
Data set [17] is described as follows: Aqueous solubility of the compound in amorphous form. It counts as physicochemical.

Values after ≈ are worked out from the molar mass of the structure shown. Active and inactive are the calls of the source. The calls are words filed in the database; no cut-off is given here. A value given as a limit tells only on which side of the number the result lay.

T1 sequence (Q16602 whole entry, one chain of several): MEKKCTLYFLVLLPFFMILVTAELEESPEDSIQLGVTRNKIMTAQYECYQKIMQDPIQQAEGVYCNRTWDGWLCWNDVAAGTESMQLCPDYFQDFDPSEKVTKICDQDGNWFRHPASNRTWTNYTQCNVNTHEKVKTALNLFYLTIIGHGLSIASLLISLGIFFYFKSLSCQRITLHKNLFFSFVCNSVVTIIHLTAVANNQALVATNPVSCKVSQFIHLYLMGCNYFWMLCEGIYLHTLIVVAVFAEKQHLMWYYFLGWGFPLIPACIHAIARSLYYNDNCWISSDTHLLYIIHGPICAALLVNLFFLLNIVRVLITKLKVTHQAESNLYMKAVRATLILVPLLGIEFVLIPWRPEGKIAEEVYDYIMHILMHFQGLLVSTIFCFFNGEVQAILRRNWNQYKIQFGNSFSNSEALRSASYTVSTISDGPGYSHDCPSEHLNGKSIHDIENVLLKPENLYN
Chain of Voltage-gated inwardly rectifying potassium channel KCNH2 (Q12809 whole entry): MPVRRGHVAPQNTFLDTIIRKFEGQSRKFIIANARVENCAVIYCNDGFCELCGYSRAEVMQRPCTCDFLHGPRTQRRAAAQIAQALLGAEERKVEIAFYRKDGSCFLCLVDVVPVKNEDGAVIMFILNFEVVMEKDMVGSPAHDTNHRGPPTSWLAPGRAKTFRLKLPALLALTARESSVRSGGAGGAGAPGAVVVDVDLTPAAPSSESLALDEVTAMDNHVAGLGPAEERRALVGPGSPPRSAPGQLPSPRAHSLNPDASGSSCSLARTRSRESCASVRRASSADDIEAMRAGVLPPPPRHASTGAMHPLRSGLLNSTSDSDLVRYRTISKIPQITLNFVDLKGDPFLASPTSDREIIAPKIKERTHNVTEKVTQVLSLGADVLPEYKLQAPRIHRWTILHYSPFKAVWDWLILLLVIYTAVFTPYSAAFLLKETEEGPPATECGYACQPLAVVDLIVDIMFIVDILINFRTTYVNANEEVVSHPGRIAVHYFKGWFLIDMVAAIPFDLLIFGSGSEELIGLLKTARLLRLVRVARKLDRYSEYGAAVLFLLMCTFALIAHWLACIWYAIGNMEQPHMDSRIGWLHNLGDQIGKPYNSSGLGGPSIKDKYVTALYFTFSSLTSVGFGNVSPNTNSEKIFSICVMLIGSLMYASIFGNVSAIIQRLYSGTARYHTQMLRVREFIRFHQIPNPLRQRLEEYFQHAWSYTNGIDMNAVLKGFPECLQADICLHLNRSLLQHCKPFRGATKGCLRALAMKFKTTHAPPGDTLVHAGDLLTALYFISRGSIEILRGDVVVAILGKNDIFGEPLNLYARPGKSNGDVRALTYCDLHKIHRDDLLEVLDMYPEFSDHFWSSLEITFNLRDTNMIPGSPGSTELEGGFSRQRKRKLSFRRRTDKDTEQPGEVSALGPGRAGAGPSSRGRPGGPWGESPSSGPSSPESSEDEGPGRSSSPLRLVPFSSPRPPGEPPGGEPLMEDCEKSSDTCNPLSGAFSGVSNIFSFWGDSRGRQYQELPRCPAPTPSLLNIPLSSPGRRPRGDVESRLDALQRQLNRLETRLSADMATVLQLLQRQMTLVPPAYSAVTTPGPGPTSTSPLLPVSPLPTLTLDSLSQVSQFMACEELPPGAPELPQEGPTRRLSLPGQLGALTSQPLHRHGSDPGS
Chain of Cytochrome P450 2C19 (P33261 whole entry): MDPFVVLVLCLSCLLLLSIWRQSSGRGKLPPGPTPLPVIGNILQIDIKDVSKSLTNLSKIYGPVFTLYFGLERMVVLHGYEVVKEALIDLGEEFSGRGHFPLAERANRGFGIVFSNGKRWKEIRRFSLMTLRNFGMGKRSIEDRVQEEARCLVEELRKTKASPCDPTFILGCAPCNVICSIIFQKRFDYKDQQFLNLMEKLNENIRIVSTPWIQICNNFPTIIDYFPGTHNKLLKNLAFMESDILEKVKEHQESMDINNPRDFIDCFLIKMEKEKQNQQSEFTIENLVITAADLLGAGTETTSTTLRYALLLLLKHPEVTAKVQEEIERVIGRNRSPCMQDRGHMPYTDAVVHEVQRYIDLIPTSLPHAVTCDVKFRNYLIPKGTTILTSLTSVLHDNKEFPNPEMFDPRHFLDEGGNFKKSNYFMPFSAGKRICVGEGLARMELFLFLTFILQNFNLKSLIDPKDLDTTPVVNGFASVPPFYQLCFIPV
Chain of Cytochrome P450 2E1 (P05181 whole entry): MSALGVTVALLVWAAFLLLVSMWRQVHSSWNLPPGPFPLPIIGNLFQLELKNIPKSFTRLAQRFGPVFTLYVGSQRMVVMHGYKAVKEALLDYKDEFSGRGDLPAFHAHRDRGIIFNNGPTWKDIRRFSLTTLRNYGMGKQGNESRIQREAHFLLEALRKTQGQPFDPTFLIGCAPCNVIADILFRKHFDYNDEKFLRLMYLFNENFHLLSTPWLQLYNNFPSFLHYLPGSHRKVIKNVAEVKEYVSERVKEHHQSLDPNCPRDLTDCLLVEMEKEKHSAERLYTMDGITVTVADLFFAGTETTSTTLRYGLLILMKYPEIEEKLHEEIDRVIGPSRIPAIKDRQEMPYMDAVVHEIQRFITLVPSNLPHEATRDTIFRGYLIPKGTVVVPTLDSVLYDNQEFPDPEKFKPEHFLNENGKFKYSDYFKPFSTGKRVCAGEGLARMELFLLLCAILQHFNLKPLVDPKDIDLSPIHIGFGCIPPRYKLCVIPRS
Chain of Cytochrome P450 2D6 (P10635 whole entry): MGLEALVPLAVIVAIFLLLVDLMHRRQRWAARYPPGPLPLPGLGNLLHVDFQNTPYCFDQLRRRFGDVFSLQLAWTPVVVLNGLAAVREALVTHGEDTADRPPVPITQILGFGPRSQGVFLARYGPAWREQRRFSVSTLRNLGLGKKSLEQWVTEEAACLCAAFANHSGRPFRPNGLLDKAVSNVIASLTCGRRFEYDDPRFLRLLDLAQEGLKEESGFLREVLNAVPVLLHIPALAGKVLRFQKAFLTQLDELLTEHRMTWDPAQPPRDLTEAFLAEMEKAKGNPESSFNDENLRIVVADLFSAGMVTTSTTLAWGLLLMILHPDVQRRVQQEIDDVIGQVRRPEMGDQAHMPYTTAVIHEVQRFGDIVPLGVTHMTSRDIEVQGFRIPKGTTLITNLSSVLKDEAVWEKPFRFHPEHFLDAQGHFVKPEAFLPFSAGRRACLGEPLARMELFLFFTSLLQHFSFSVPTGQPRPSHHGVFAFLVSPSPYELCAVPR
Chain of Cytochrome P450 2C9 (P11712 whole entry): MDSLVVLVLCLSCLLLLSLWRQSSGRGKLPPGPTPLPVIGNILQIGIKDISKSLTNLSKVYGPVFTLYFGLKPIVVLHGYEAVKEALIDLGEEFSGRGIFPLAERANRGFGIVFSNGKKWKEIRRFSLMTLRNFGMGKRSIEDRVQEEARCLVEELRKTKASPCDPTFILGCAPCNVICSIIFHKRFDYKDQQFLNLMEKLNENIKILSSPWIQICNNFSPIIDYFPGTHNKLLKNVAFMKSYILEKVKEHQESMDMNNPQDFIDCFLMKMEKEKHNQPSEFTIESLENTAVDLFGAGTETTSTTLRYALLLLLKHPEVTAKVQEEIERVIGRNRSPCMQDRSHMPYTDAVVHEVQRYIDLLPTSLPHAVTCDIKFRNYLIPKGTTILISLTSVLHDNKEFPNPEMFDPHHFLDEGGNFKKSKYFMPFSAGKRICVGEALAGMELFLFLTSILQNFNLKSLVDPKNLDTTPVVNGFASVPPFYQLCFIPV

For orientation: Ki means the equilibrium dissociation constant of an inhibitor or competing ligand from its target. As to `O=C(O[C@@H]1CC[C@@H](c2cccc(F)c2F)[C@@H](O)c2cccnc21)N1CCC(n2c(=O)[nH]c3ncccc32)CC1`, in [1], the Ki was determined as 4.3 nM.
Usually IC50 stands for the concentration at which inhibition is half-maximal. The term half-life denotes how long it takes for the measured level to halve. As a reminder, the bioavailability is the share of a dose that reaches the circulation, judged against a reference dose that is usually intravenous. In general, fraction unbound refers to free concentration divided by total concentration. What is called inhibition in vivo is the drop in the measured response relative to a control, in per cent. One may read the EC50 as the concentration at which the effect is half-maximal. Broadly, the solubility is the dissolved amount per volume that the medium holds. Take `N[C@@H]1c2cccnc2[C@H](OC(=O)N2CCC(n3c(=O)[nH]c4ncccc43)CC2)CC[C@H]1c1cccc(F)c1F` [RIMEGEPANT]: the concentration in data set [2] is under 800 nM. Moreover, the IC50 on Cytochrome P450 1A2, on Cytochrome P450 2E1, at Cytochrome P450 2B6, on Cytochrome P450 2C9, at Cytochrome P450 2D6 and at Cytochrome P450 2C19 was at least 20000 nM each time. For the same compound, on Cytochrome P450 2A6, the IC50 was at least 20000 nM. The same compound returned a half-life in data set [3] of 1.38 h. Moreover, the bioavailability in data set [4] stood at 45%; in data set [5], 67%; in [11], 48%. In addition, the Activity entry in the data set with Salmonella typhimurium and in the data set listed under Homo sapiens was “Non-toxic” in each case. For the same compound, the Ki in [1] came to 0.027 nM. The Papp at 4 h, 100 µM in data set [6] turned out to be 32 ×10⁻⁶ cm/s; in data set [7] it was 19 ×10⁻⁶ cm/s. Further, the “inhibition (INH)” value in data set [8] was under 30%; in [14] it was “Not Active”. Also, the inhibition entry with HEK293 was “inactive”. The fraction unbound in data set [9] amounted to 0.069. Further, the inhibition in vivo at 7 mg/kg is 75% in the data set with Callithrix jacchus [10] and over 65% in the data set with Callithrix jacchus [15]. In [12], the concentration at 0.25 h was found to be 400 nM. In data set [13], the EC50 amounted to 0.14 nM. This compound yielded a solubility in [16] of 50 µg/mL (≈ 93.5 µM).
As for `[N-]=[N+]=N[C@@H]1c2cccnc2[C@H](OC(=O)N2CCC(n3c(=O)[nH]c4ncccc43)CC2)CC[C@H]1c1cccc(F)c1F`, the Ki in data set [1] is 0.066 nM.
Compound `O=C(O[C@@H]1CC[C@@H](c2cccc(F)c2F)[C@H](O)c2cccnc21)N1CCC(n2c(=O)[nH]c3ncccc32)CC1` registered a half-life in [3] of 1.17 h. In addition, the Ki in data set [1] stood at 0.081 nM. In data set [17], the concentration in solution (solubility) was 66 µg/mL (≈ 123 µM). Besides, the fraction unbound in [9] was found to be 0.041.
In the case of `O=C(O[C@@H]1CC[C@H](c2cccc(F)c2F)[C@H](O)c2cccnc21)N1CCC(n2c(=O)[nH]c3ncccc32)CC1` (mixture of isomers), the Ki in data set [1] worked out at 0.67 nM.

Source of the values: ChEMBL document CHEMBL2176923, “Discovery of (5S,6S,9R)-5-amino-6-(2,3-difluorophenyl)-6,7,8,9-tetrahydro-5H-cyclohepta[b]pyridin-9-yl 4-(2-oxo-2,3-dihydro-1H-imidazo[4,5-b]pyridin-1-yl)piperidine-1-carboxylate (BMS-927711): an oral calcitonin gene-related peptide (CGRP) antagonist in clinical trials for treating migraine” (J Med Chem, 2012).
